# Test results published in patent US8956445B2, “High stability diionic liquid salts” (Sigma-Aldrich Co., priority 2004, dated 2015).
# Like-named read-outs stand apart in the source and are kept apart here.
# Experiments:
# [1] = Refractive index (Abbe-3L refractometer); type: physicochemical; conditions: 23° C.
# Description: (§1) The densities of the ionic liquids or, more correctly, […] (used synonymously except as indicated otherwise explicitly or by context) was determined at 23° C. by placing 2.0 mL of the ionic liquid in a 2.0 mL volumetric tube and weighing by difference. The melting points of the ionic liquids were determined using a Perkin Elmer Pyris 1 Differential Scanning calorimeter (Boston, Mass.). Typical methods involved using a 10° C./min temperature ramp to determine and identify the first and second order thermal transitions. […] For solid compounds, the melting points were verified using a capillary melting point apparatus. Refractive index measurements were conducted at 23° C. using a Bausch & Lomb Abbe-3L refractometer.
# [2] = Surface tension (DuNuoy Tensiometer); type: physicochemical; conditions: room temperature (23° C.)
# [3] = Density (2.0 mL volumetric tube, weighing by difference); type: physicochemical; conditions: 23° C.
# Description: as §1
# [4] = Solvation thermodynamics of probe molecules (van't Hoff plots, GC); type: physicochemical
# Excerpt: Solvation thermodynamics can be determined chromatographically by recognizing that the Gibbs free energy change, ΔG°, of a solute between the mobile phase and the stationary phase can be described by equation 1:
# [formula] where k is the solute retention factor and Φ is the column phase ratio. An expression shown in equation 2 can then be derived and illustrates the dependence of enthalpy, ΔH°, and entropy, ΔS°, on the change of the retention factor with temperature:
# [formula] A van't Hoff plot of ln k versus 1/T provides the entropy (intercept) and enthalpy (slope) and describes a solute's transfer from the gas phase to the ionic liquid stationary phase. In this work, the solvation thermodynamics were determined for seven different probe molecules, listed in Table D, on two cross-linked ionic liquid phases and one ionic liquid stationary phase. […] For each probe molecule on each stationary phase, three separate van't Hoff plots were constructed so that changes in the probe molecule retention factor could be used to provide an error for each thermodynamic parameter. The probe molecule retention factors were determined at six different temperatures to obtain the highest possible correlation coefficient (>0.989).
# (§2) Test solutes used to determine interaction parameters and solvation thermodynamics were dissolved in dichloromethane. A Hewlett-Packard model 5890 gas chromatograph and a Hewlett-Packard 6890 series integrator were used for all separations. Split injection and flame ionization detection were utilized with injection and detection temperatures of 250° C. Helium was used as the carrier gas with a column inlet pressure of 3.1 psi and flow rate of 1.0 mL/min. Methane was used to determine the dead volume of the column. Multiple linear regression analysis and statistical calculations were performed using the program Analyze-it (Microsoft).
# [5] = Solvation interaction parameters by inverse gas-liquid chromatography (Abraham solvation model); type: physicochemical
# Description: The preparation of the capillary columns for inverse gas-liquid chromatographic analysis was performed using a previously described procedure.^31 All capillary columns had efficiencies between 2100 to 2500 plates/meter. Characterization of the capillary columns and probe molecule descriptions are listed in supplemental information. Multiple linear regression analysis (MLRA) and statistical calculations were performed using the program Analyse-it (Microsoft, USA).
# We have previously reported that the Abraham solvation model, a linear free energy approach that utilizes inverse gas-liquid chromatography to describe the solvation properties of a liquid, can be used to characterize room temperature ionic liquids.^31 Described by equation 1, the model provides the so-called “interaction parameters” (r, s, a, b, l) by using multiple linear regression analysis to fit the retention factor (k, determined chromatographically) to the solute descriptors (R2, π2^H, α2^H, β2^H, log L^16) for a wide variety of probe solute molecules. […] The solvation properties of four dicationic ionic liquids (see Table 4) were evaluated and the interaction parameters compared to those obtained for their traditional monocationic analogues 1-butyl-3-methylimidazolium and 1-butyl-1-methylpyrrolidinium ionic liquids.
# Previously we characterized a large number of room temperature ionic liquids in terms of multiple solvation interactions using the solvation parameter model, shown in equation 3.^44 log k=c+rR2+sπ2^H+aα2^H+bβ2^H+l log L^16 [3] This approach utilizes inverse gas-liquid chromatography and allows the use of a large number of probe molecules to deconvolute solute retention in terms of the type and magnitude of individual solvation interactions. The solute descriptors (R2, π2^H, α2^H, β2^H, log L^16) from Equation 3 are obtained from the literature for many probe molecules containing a variety of functional groups.^45 The retention factor is determined chromatographically. The solute descriptors and retention factors are subjected to multiple linear regression analysis to obtain the interaction parameter coefficients (r, s, a, b, l), which ultimately characterize the stationary phase: r is the ability of the diionic liquid containing-stationary phase to interact with π and n electrons of the solute, s is a measure of the dipolarity/polarizability of the diionic liquid containing-stationary phase, a defines the diionic liquid containing-stationary phase hydrogen bond basicity, b is a measure of the hydrogen bond acidity, and/refers to the ability of the diionic liquid containing-stationary phase to separate adjacent members of a homologous series.^46
# as §2
# [6] = probe 2-Chloroaniline, 40-100° C.
# [7] = probe Ethyl Phenyl Ether, 35-75° C.
smiles,measurement,setting,value
"CCCCn1cc[n+](CCCCCCCCC[n+]2ccn(CCCC)c2)c1.O=S(=O)([N-]S(=O)(=O)C(F)(F)F)C(F)(F)F.O=S(=O)([N-]S(=O)(=O)C(F)(F)F)C(F)(F)F [C9(bim)2-NTf2, 1,9-di(3-butylimidazolium)nonane di-bis[(trifluoromethyl)sulfonyl]imidate]",Miscibility with Heptane,,Immiscible
same,Miscibility with Water,,Immiscible
same,Refractive Index,[1],1.446
same,Surface Tension,[2],38.0 dynes/cm
same,Density,[3],1.35 g/mL
"Cc1n(C)cc[n+]1CCCCCCCCC[n+]1ccn(C)c1C.O=S(=O)([N-]S(=O)(=O)C(F)(F)F)C(F)(F)F.O=S(=O)([N-]S(=O)(=O)C(F)(F)F)C(F)(F)F [C9(m2im)2-NTf2, 1,9-di(2,3-dimethylimidazolium)nonane di-bis[(trifluoromethyl)sulfonyl]imidate]",Miscibility with Heptane,,Immiscible
same,Miscibility with Water,,Immiscible
same,Refractive Index,[1],1.448
same,Surface Tension,[2],43.5 dynes/cm
same,Density,[3],1.47 g/mL
"Cn1cc[n+](CCCCCC[n+]2ccn(C)c2)c1.O=S(=O)([N-]S(=O)(=O)C(F)(F)F)C(F)(F)F.O=S(=O)([N-]S(=O)(=O)C(F)(F)F)C(F)(F)F [C6(mim)2-NTf2, 1,6-di(3-methylimidazolium)hexane di-bis[(trifluoromethyl)sulfonyl]imida]",Miscibility with Heptane,,Immiscible
same,Miscibility with Water,,Immiscible
same,Refractive Index,[1],1.441
same,Surface Tension,[2],44.2 dynes/cm
same,Density,[3],1.52 g/mL
"CCCCn1cc[n+](CCCCCCCCC[n+]2ccn(CCCC)c2)c1.F[B-](F)(F)F.F[B-](F)(F)F [C9(bim)2-BF4, 1,9-di(3-butylimidazolium)nonane di-tetrafluoroborate]",Miscibility with Heptane,,Immiscible
same,Miscibility with Water,,Partially
same,Miscibility with Water,listed as 19,solubility of the salt in water decreases
same,Refractive Index,[1],1.503
same,Surface Tension,[2],50.4 dynes/cm
same,Density,[3],1.20 g/mL
"Cc1n(C)cc[n+]1CCCCCCCCC[n+]1ccn(C)c1C.F[B-](F)(F)F.F[B-](F)(F)F [C9(m2im)2-BF4, 1,9-di(2,3-dimethylimidazolium)nonane di-tetrafluoroborate]",Miscibility with Heptane,,Immiscible
same,Miscibility with Water,,Miscible
same,Refractive Index,[1],1.456
same,Surface Tension,[2],58.1 dynes/cm
same,Density,[3],1.31 g/mL
CCCCCCCCC[n+]1ccn(C)c1.O=S(=O)([N-]S(=O)(=O)C(F)(F)F)C(F)(F)F [nmim-NTf2],ΔHAV,"[4]; probe 1-Octanol, 35-75° C.",-14.168 kcal/mol
same,ΔSAV,"[4]; probe 1-Octanol, 35-75° C.",−151 J/mol*K
same,ΔG,"[4]; probe 1-Octanol, 50° C.",-2.505 kcal/mol
same,ΔHAV,[4]; [6],-13.779 kcal/mol
same,ΔSAV,[4]; [6],−134 J/mol*K
same,ΔG,"[4]; probe 2-Chloroaniline, 70° C.",-2.7892 kcal/mol
same,ΔHAV,"[4]; probe Decane, 35-75° C.",-10.848 kcal/mol
same,ΔSAV,"[4]; probe Decane, 35-75° C.",−127 J/mol*K
same,ΔG,"[4]; probe Decane, 50° C.",-1.039 kcal/mol
same,ΔHAV,[4]; [7],-11.119 kcal/mol
same,ΔSAV,[4]; [7],−121 J/mol*K
same,ΔG,"[4]; probe Ethyl Phenyl Ether, 50° C.",-1.773 kcal/mol
same,ΔHAV,"[4]; probe Fluorophenol, 40-100° C.",-11.497 kcal/mol
same,ΔSAV,"[4]; probe Fluorophenol, 40-100° C.",−121 J/mol*K
same,ΔG,"[4]; probe Fluorophenol, 70° C.",-1.573 kcal/mol
same,ΔHAV,"[4]; probe Naphthalene, 40-100° C.",-12.856 kcal/mol
same,ΔSAV,"[4]; probe Naphthalene, 40-100° C.",−127 J/mol*K
same,ΔG,"[4]; probe Naphthalene, 70° C.",-2.44 kcal/mol
same,ΔHAV,"[4]; probe Nitropropane, 27-50° C.",-9.3236 kcal/mol
same,ΔSAV,"[4]; probe Nitropropane, 27-50° C.",−109 J/mol*K
same,ΔG,"[4]; probe Nitropropane, 35° C.",-1.296 kcal/mol
same,Refractive Index,[1],1.434
same,a (hydrogen bond basicity),[5]; 40° C.,1.91
same,b (hydrogen bond acidity),[5]; 40° C.,0.36
same,"c (interaction parameter table, constant)",[5]; 40° C.,−2.98
same,l (dispersion forces),[5]; 40° C.,0.75
same,r (interaction via nonbonding and π-electrons),[5]; 40° C.,0
same,s (dipolarity/polarizability),[5]; 40° C.,1.62
same,a (hydrogen bond basicity),[5]; 70° C.,1.57
same,b (hydrogen bond acidity),[5]; 70° C.,0.18
same,"c (interaction parameter table, constant)",[5]; 70° C.,−3.05
same,l (dispersion forces),[5]; 70° C.,0.63
same,r (interaction via nonbonding and π-electrons),[5]; 70° C.,0
same,s (dipolarity/polarizability),[5]; 70° C.,1.54
same,a (hydrogen bond basicity),[5]; 100° C.,1.43
same,b (hydrogen bond acidity),[5]; 100° C.,0.12
same,"c (interaction parameter table, constant)",[5]; 100° C.,−3.47
same,l (dispersion forces),[5]; 100° C.,0.60
same,r (interaction via nonbonding and π-electrons),[5]; 100° C.,0
same,s (dipolarity/polarizability),[5]; 100° C.,1.52
same,Density,[3],1.30 g/mL
"Cn1cc[n+](CCCCCCCCCCCC[n+]2ccn(C)c2)c1.F[B-](F)(F)F.F[B-](F)(F)F [C12(mim)2-BF4, 1,12-di(3-methylimidazolium)dodecane di-tetrafluoroborate]",Miscibility with Heptane,,Immiscible
same,Miscibility with Water,,Partially
same,Miscibility with Water,listed as 15,solubility of the salt in water decreases
same,Refractive Index,[1],1.503
same,Surface Tension,[2],55.8 dynes/cm
same,Density,[3],1.26 g/mL
"Cn1cc[n+](CCCCCCCCC[n+]2ccn(C)c2)c1.F[B-](F)(F)F.F[B-](F)(F)F [C9(mim)2-BF4, 1,9-di(3-methylimidazolium)nonane di-tetrafluoroborate]",Miscibility with Heptane,,Immiscible
same,Miscibility with Water,,Miscible
same,Refractive Index,[1],1.469
same,Surface Tension,[2],61.2 dynes/cm
same,Density,[3],1.33 g/mL
"CCCCn1cc[n+](CCCCCCCCC[n+]2ccn(CCCC)c2)c1.F[P-](F)(F)(F)(F)F.F[P-](F)(F)(F)(F)F [C9(bim)2-PF6, 1,9-di(3-butylimidazolium)nonane di-hexafluorophosphate]",Miscibility with Heptane,,Immiscible
same,Miscibility with Water,,Immiscible
same,Refractive Index,[1],1.439
same,Surface Tension,[2],48.0 dynes/cm
same,Density,[3],1.30 g/mL
"Cn1cc[n+](CCC[n+]2ccn(C)c2)c1.O=S(=O)([N-]S(=O)(=O)C(F)(F)F)C(F)(F)F.O=S(=O)([N-]S(=O)(=O)C(F)(F)F)C(F)(F)F [C3(mim)2-NTf2, 1,3-di(3-methylimidazolium)propane di-bis[(trifluoromethyl)sulfonyl]imidate]",Miscibility with Heptane,,Immiscible
same,Miscibility with Water,,Immiscible
same,Refractive Index,[1],1.440
same,Surface Tension,[2],44.7 dynes/cm
same,Density,[3],1.61 g/mL
"F[P-](F)(F)(F)(F)F.F[P-](F)(F)(F)(F)F.c1ccc(Cn2cc[n+](CCCCCCCCCCCC[n+]3ccn(Cc4ccccc4)c3)c2)cc1 [C12(benzim)2-PF6, 1,12-di(3-benzylimidazolium)dodecane di-hexafluorophosphate]",Miscibility with Heptane,,Immiscible
same,Miscibility with Water,,Immiscible
same,Refractive Index,[1],1.484
same,Surface Tension,[2],47.4 dynes/cm
same,Density,[3],1.27 g/mL
"Cn1cc[n+](CCCCCCCCCCCC[n+]2ccn(C)c2)c1.O=S(=O)([N-]S(=O)(=O)C(F)(F)F)C(F)(F)F.O=S(=O)([N-]S(=O)(=O)C(F)(F)F)C(F)(F)F [C12(mim)2-NTf2, 1,12-di(3-methylimidazolium)dodecane di-bis[(trifluoromethyl)sulfonyl]imidate]",Miscibility with Heptane,,Immiscible
same,Miscibility with Water,,Immiscible
same,Refractive Index,[1],1.443
same,Surface Tension,[2],42.3 dynes/cm
same,Density,[3],1.40 g/mL
